This passage reports EC50 and Ki results from patent US20240279278A1, “NMU RECEPTOR 2 AGONISTS” (Boehringer Ingelheim International GmbH, priority 2023, published 2024).

A word on the EC50: it is the concentration that produces a half-maximal response. As usually defined, the Ki is a dissociation constant, usually derived from enzyme kinetics or from competition with a known ligand. A higher Ki goes with a looser hold on the target.

Residues, ends and D or L forms follow the SMILES beside them.

The target of one test is T1, human NMUR1 receptor (Homo sapiens, UniProt Q9HB89).
T1 construct: expressed in transfected cells; host or cells: CHO-K1
T1 sequence (Q9HB89 1-426): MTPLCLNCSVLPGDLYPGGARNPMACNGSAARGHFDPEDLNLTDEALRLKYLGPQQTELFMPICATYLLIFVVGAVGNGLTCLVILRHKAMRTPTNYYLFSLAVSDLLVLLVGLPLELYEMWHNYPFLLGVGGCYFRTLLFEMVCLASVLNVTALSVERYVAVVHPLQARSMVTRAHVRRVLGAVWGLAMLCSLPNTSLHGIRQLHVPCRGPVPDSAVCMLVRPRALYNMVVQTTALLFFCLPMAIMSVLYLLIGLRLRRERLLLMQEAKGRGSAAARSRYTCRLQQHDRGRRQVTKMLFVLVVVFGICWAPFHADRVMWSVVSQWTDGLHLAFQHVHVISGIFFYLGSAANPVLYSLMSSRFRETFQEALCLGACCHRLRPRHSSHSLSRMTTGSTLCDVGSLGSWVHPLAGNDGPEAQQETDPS
As to the kind of experiment: IP1 Gq HTRF assay, activation of human NMUR1 in buffer. The test is classed as cell-based. To be noted: CHO-K1 cells expressing human NMUR1, stimulation buffer with 0.1% BSA; read-out: EC50 (hNMUR1) buffer. In outline:
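CHO-K1 cells stably expressing human NMUR1 or NMUR2, seeded 24 h before assay, stimulated with peptide agonists (8-point dose-response, 1% DMSO final) in HEPES/HBSS buffer with 50 mM LiCl and 0.1% BSA, pH 7.4, 1 h at 37 °C. IP1 accumulation read by HTRF competition (665/620 nm); EC50 from 4-parameter sigmoidal fit.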

Another test deals with human NMUR2 receptor (Homo sapiens, UniProt Q9GZQ4). As to the kind of experiment: Radioligand binding competition assay (RLB), human NMUR2 receptor binding (SPA, [125I]-Neuromedin U-25). Particulars: CHO-K1 hNMUR2 cell membranes, 4 hours at RT. Set-up: host or cells: CHO-K1.
Chain of human NMUR2 receptor (Q9GZQ4 whole entry): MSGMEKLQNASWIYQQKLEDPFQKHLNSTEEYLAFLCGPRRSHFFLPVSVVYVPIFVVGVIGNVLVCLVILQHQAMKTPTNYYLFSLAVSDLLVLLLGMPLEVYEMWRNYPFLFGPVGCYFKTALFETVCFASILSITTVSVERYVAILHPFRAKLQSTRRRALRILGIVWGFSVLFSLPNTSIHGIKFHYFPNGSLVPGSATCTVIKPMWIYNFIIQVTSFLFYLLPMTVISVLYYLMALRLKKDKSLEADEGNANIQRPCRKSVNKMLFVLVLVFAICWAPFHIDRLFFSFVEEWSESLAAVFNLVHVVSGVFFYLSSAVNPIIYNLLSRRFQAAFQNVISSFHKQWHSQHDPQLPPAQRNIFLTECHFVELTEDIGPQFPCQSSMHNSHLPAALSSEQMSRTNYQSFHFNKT

For the compound `CCCC[C@H](NC(=O)[C@H](CC(C)C)N(C)C(=O)[C@H](Cc1ccccc1)NC(=O)[C@H](Cc1ccc(O)cc1)NC(=O)CN1CCN(CCNC(=O)CN(C)C(=O)CN(C)C(=O)CN(C)C(=O)CN(C)C(=O)CN(C)C(=O)CN(C)C(=O)CN(C)C(=O)CN(C)C(=O)CN(C)C(=O)CN(C)C(=O)CN(C)C(=O)CN(C)C(=O)CC[C@H](NC(=O)CC[C@H](NC(=O)CC[C@H](NC(=O)CCCCCCCCCCCCCCCCC(=O)O)C(=O)O)C(=O)O)C(=O)O)CC1)C(=O)N[C@@H](CCN)C(=O)N(C)[C@@H](C)C(=O)N[C@@H](CCCNC(=N)N)C(=O)NCC(N)=O` [Compound 38, C18DA-gGlu3-Sar12-AEPipAc-Tyr-Phe-NMeLeu-Nle-Dbu-NMeAla-Arg-Gly-NH2], the EC50 on human NMUR1 receptor was greater than 1 µM. Also, the Ki at human NMUR2 receptor was found to be 0.0338 µM.
The corresponding values for `CCCC[C@H](NC(=O)[C@H](CC(C)C)N(C)C(=O)[C@H](Cc1ccccc1)NC(=O)[C@H](Cc1ccc(O)cc1)NC(=O)CN1CCN(CCNC(=O)CN(C)C(=O)CN(C)C(=O)CN(C)C(=O)CN(C)C(=O)CN(C)C(=O)CN(C)C(=O)CN(C)C(=O)CN(C)C(=O)CN(C)C(=O)CN(C)C(=O)CN(C)C(=O)CN(C)C(=O)CN(C)C(=O)CN(C)C(=O)CN(C)C(=O)CC[C@H](NC(=O)CC[C@H](NC(=O)CC[C@H](NC(=O)CCCCCCCCCCCCCCCCCCC(=O)O)C(=O)O)C(=O)O)C(=O)O)CC1)C(=O)N[C@@H](CCN)C(=O)N1CCC[C@H]1C(=O)N[C@@H](CCCNC(=N)N)C(=O)NCC(N)=O` [Compound 42, C20DA-gGlu3-Sar15-AEPipAc-Tyr-Phe-NMeLeu-Nle-Dbu-Pro-Arg-Gly-NH2] (HELM PEPTIDE1{[O=C(O)CCCCCCCCCCCCCCCCCCC(=O)[*:2]].[gGlu].[gGlu].[gGlu].[Sar].[Sar].[Sar].[Sar].[Sar].[Sar].[Sar].[Sar].[Sar].[Sar].[Sar].[Sar].[Sar].[Sar].[Sar].[O=C(CN1CCN(CCN[*:1])CC1)[*:2]].Y.F.[meL].[Nle].[Dab].P.R.G.[am]}$$$$V2.0) are 1.5 µM and 0.0237 µM.
On to `CCCC[C@H](NC(=O)[C@H](CC(C)C)N(C)C(=O)[C@H](Cc1ccccc1)NC(=O)[C@H](Cc1ccc(O)cc1)NC(=O)CN1CCN(CCNC(=O)CN(C)C(=O)CN(C)C(=O)CN(C)C(=O)CN(C)C(=O)CN(C)C(=O)CN(C)C(=O)CN(C)C(=O)CN(C)C(=O)CN(C)C(=O)CN(C)C(=O)CN(C)C(=O)CN(C)C(=O)CN(C)C(=O)CN(C)C(=O)CN(C)C(=O)CC[C@H](NC(=O)CC[C@H](NC(=O)CC[C@H](NC(=O)CCCCCCCCCCCCCCCCCCC(=O)O)C(=O)O)C(=O)O)C(=O)O)CC1)C(=O)N[C@@H](CCN)C(=O)N(C)[C@@H](C)C(=O)N[C@@H](CCCNC(=N)N)C(=O)NCC(N)=O` [Compound 43, C20DA-gGlu3-Sar15-AEPipAc-Tyr-Phe-NMeLeu-Nle-Dbu-NMeAla-Arg-Gly-NH2] (HELM PEPTIDE1{[O=C(O)CCCCCCCCCCCCCCCCCCC(=O)[*:2]].[gGlu].[gGlu].[gGlu].[Sar].[Sar].[Sar].[Sar].[Sar].[Sar].[Sar].[Sar].[Sar].[Sar].[Sar].[Sar].[Sar].[Sar].[Sar].[O=C(CN1CCN(CCN[*:1])CC1)[*:2]].Y.F.[meL].[Nle].[Dab].[meA].R.G.[am]}$$$$V2.0), for which, at human NMUR1 receptor, the EC50 was greater than 1 µM. The Ki at human NMUR2 receptor was 0.0326 µM.
With `CCCC[C@H](NC(=O)[C@H](CC(C)C)N(C)C(=O)[C@H](Cc1ccccc1)NC(=O)[C@H](Cc1ccc(O)cc1)NC(=O)CN1CCN(CCNC(=O)CN(C)C(=O)CN(C)C(=O)CN(C)C(=O)CN(C)C(=O)CN(C)C(=O)CN(C)C(=O)CN(C)C(=O)CN(C)C(=O)CN(C)C(=O)CC[C@H](NC(=O)CC[C@H](NC(=O)CC[C@H](NC(=O)CCCCCCCCCCCCCCCCCCC(=O)O)C(=O)O)C(=O)O)C(=O)O)CC1)C(=O)N[C@@H](CCCNC(=N)N)C(=O)N1CCC[C@H]1C(=O)N[C@@H](CCCNC(=N)N)C(=O)NCC(N)=O` [Compound 65, C20DA-gGlu3-Sar9-AEPipAc-Tyr-Phe-NMeLeu-Nle-Arg-Pro-Arg-Gly-NH2] (HELM PEPTIDE1{[O=C(O)CCCCCCCCCCCCCCCCCCC(=O)[*:2]].[gGlu].[gGlu].[gGlu].[Sar].[Sar].[Sar].[Sar].[Sar].[Sar].[Sar].[Sar].[Sar].[O=C(CN1CCN(CCN[*:1])CC1)[*:2]].Y.F.[meL].[Nle].R.P.R.G.[am]}$$$$V2.0), on human NMUR1 receptor, the half-maximal effective concentration (EC50) is 0.13 µM. This compound returned a Ki at human NMUR2 receptor of 0.0253 µM.
